Measured values reported in US12110295B2, “WD40 repeat domain protein 5 (WDR5) degradation/disruption compounds and methods of use” (Icahn School of Medicine at Mount Sinai, priority 2018, dated 2024).

These compounds were tested against WDR5 (Homo sapiens, UniProt P61964) (assay: Screening of putative WDR5 degraders by Western blot in MV4;11 and/or MIAPACA2 cells). Details: summary of screening, FIGS. 6-10.
Type: cell-based
Design: After WDR5 degrader treatment, cells were collected and lysed; endogenous in cells; host or cells: MV4;11 and/or MIAPACA2
Procedure, shortened: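 MV4;11 (1×10^6/well) or MIAPACA2 (1×10^5/well) cells treated 18 h with compound at paired doses between 0.1 and 10 μM, DMSO as control. Total lysates immunoblotted for WDR5 with vinculin, tubulin or GAPDH loading controls; fluorescent secondary detection.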

Structure (SMILES) | effective degradation of WDR5 in MV4;11 and/or MIAPACA2 cells
Cc1ncsc1-c1ccc(CNC(=O)[C@@H]2C[C@@H](O)CN2C(=O)[C@@H](NC(=O)CCCCCCCC(=O)N2CC=C(c3cc(NC(=O)c4c[nH]c(=O)cc4C(F)(F)F)c(N4C[C@@H](C)N(C)[C@@H](C)C4)cc3F)CC2)C(C)(C)C)cc1 [XF078-44, N-(4-fluoro-5-(1-(9-(((S)-1-((2S,4R)-4-hydroxy-2-((4-(4-methylthiazol-5-yl)benzyl)carbamoyl)pyrrolidin-1-yl)-3,3-dimethyl-1-oxobutan-2-yl)amino)-9-oxononanoyl)-1,2,3,6-tetrahydropyridin-4-yl)-2-((3S,5R)-3,4,5-trimethylpiperazin-1-yl)phenyl)-6-oxo-4-(trifluoromethyl)-1,6-dihydropyridine-3-carboxamide] | able to effectively degrade WDR5
Cc1ncsc1-c1ccc(CNC(=O)[C@@H]2C[C@@H](O)CN2C(=O)[C@@H](NC(=O)CCCCCCCCC(=O)N2CCN(c3ncc(-c4cc(NC(=O)c5ccc(F)cc5C(F)(F)F)c(N5C[C@@H](C)N(C)[C@@H](C)C5)cc4F)cn3)CC2)C(C)(C)C)cc1 [XF078-114, (2S,4R)-1-((S)-2-(10-(4-(5-(2-fluoro-5-(4-fluoro-2-(trifluoromethyl)benzamido)-4-((3S,5R)-3,4,5-trimethylpiperazin-1-yl)phenyl)pyrimidin-2-yl)piperazin-1-yl)-10-oxodecanamido)-3,3-dimethylbutanoyl)-4-hydroxy-N-(4-(4-methylthiazol-5-yl)benzyl)pyrrolidine-2-carboxamide] | able to effectively degrade WDR5
Cc1ncsc1-c1ccc(CNC(=O)[C@@H]2C[C@@H](O)CN2C(=O)[C@@H](NC(=O)CCCCCCCC(=O)N2CCN(c3ncc(-c4cc(NC(=O)c5ccc(F)cc5C(F)(F)F)c(N5C[C@@H](C)N(C)[C@@H](C)C5)cc4F)cn3)CC2)C(C)(C)C)cc1 [XF078-113, (2S,4R)-1-((S)-2-(9-(4-(5-(2-fluoro-5-(4-fluoro-2-(trifluoromethyl)benzamido)-4-((3S,5R)-3,4,5-trimethylpiperazin-1-yl)phenyl)pyrimidin-2-yl)piperazin-1-yl)-9-oxononanamido)-3,3-dimethylbutanoyl)-4-hydroxy-N-(4-(4-methylthiazol-5-yl)benzyl)pyrrolidine-2-carboxamide] | able to effectively degrade WDR5
Cc1ncsc1-c1ccc(CNC(=O)[C@@H]2C[C@@H](O)CN2C(=O)[C@@H](NC(=O)CCCCCCC(=O)N2CCN(Cc3cnc(N4CC=C(c5cc(NC(=O)c6c[nH]c(=O)cc6C(F)(F)F)c(N6C[C@@H](C)N(C)[C@@H](C)C6)cc5F)CC4)nc3)CC2)C(C)(C)C)cc1 [XF078-145, N-(4-fluoro-5-(1-(5-((4-(8-(((S)-1-((2S,4R)-4-hydroxy-2-((4-(4-methylthiazol-5-yl)benzyl)carbamoyl)pyrrolidin-1-yl)-3,3-dimethyl-1-oxobutan-2-yl)amino)-8-oxooctanoyl)piperazin-1-yl)methyl)pyrimidin-2-yl)-1,2,3,6-tetrahydropyridin-4-yl)-2-((3S,5R)-3,4,5-trimethylpiperazin-1-yl)phenyl)-6-oxo-4-(trifluoromethyl)-1,6-dihydropyridine-3-carboxamide] | able to effectively degrade WDR5
Cc1ncsc1-c1ccc(CNC(=O)[C@@H]2C[C@@H](O)CN2C(=O)[C@@H](NC(=O)CCCCCC(=O)NCCN2CCN(Cc3ccc(F)c(-c4ccc(N5C[C@@H](C)N(C)[C@@H](C)C5)c(NC(=O)c5c[nH]c(=O)cc5C(F)(F)F)c4)c3)CC2)C(C)(C)C)cc1 [XF078-13, N^1-(2-(4-((6-fluoro-3′-(6-oxo-4-(trifluoromethyl)-1,6-dihydropyridine-3-carboxamido)-4′-((3S,5R)-3,4,5-trimethylpiperazin-1-yl)-[1,1′-biphenyl]-3-yl)methyl)piperazin-1-yl)ethyl)-N^7-((S)-1-((2S,4R)-4-hydroxy-2-((4-(4-methylthiazol-5-yl)benzyl)carbamoyl)pyrrolidin-1-yl)-3,3-dimethyl-1-oxobutan-2-yl)heptanediamide] | able to effectively degrade WDR5
Cc1ncsc1-c1ccc(CNC(=O)[C@@H]2C[C@@H](O)CN2C(=O)[C@@H](NC(=O)COCC(=O)N2CCN(Cc3cnc(N4CC=C(c5cc(NC(=O)c6c[nH]c(=O)cc6C(F)(F)F)c(N6C[C@@H](C)N(C)[C@@H](C)C6)cc5F)CC4)nc3)CC2)C(C)(C)C)cc1 [XF078-132, N-(4-fluoro-5-(1-(5-((4-(2-(2-(((S)-1-((2S,4R)-4-hydroxy-2-((4-(4-methylthiazol-5-yl)benzyl)carbamoyl)pyrrolidin-1-yl)-3,3-dimethyl-1-oxobutan-2-yl)amino)-2-oxoethoxy)acetyl)piperazin-1-yl)methyl)pyrimidin-2-yl)-1,2,3,6-tetrahydropyridin-4-yl)-2-((3S,5R)-3,4,5-trimethylpiperazin-1-yl)phenyl)-6-oxo-4-(trifluoromethyl)-1,6-dihydropyridine-3-carboxamide] | able to effectively degrade WDR5
Cc1ncsc1-c1ccc(CNC(=O)[C@@H]2C[C@@H](O)CN2C(=O)[C@@H](NC(=O)CCCCCCC(=O)NCCN2CCN(Cc3ccc(F)c(-c4ccc(N5C[C@@H](C)N(C)[C@@H](C)C5)c(NC(=O)c5c[nH]c(=O)cc5C(F)(F)F)c4)c3)CC2)C(C)(C)C)cc1 [XF078-14, N^1-(2-(4-((6-fluoro-3′-(6-oxo-4-(trifluoromethyl)-1,6-dihydropyridine-3-carboxamido)-4′-((3S,5R)-3,4,5-trimethylpiperazin-1-yl)-[1,1′-biphenyl]-3-yl)methyl)piperazin-1-yl)ethyl)-N^8-((S)-1-((2S,4R)-4-hydroxy-2-((4-(4-methylthiazol-5-yl)benzyl)carbamoyl)pyrrolidin-1-yl)-3,3-dimethyl-1-oxobutan-2-yl)octanediamide] | able to effectively degrade WDR5
Cc1ncsc1-c1ccc(CNC(=O)[C@@H]2C[C@@H](O)CN2C(=O)[C@@H](NC(=O)COCC(=O)N2CCN(c3ncc(-c4cc(NC(=O)c5ccc(F)cc5C(F)(F)F)c(N5C[C@@H](C)N(C)[C@@H](C)C5)cc4F)cn3)CC2)C(C)(C)C)cc1 [XF078-99, (2S,4R)-1-((S)-2-(2-(2-(4-(5-(2-fluoro-5-(4-fluoro-2-(trifluoromethyl)benzamido)-4-((3S,5R)-3,4,5-trimethylpiperazin-1-yl)phenyl)pyrimidin-2-yl)piperazin-1-yl)-2-oxoethoxy)acetamido)-3,3-dimethylbutanoyl)-4-hydroxy-N-(4-(4-methylthiazol-5-yl)benzyl)pyrrolidine-2-carboxamide] | able to effectively degrade WDR5
Cc1ncsc1-c1ccc(CNC(=O)[C@@H]2C[C@@H](O)CN2C(=O)[C@@H](NC(=O)CCCC(=O)N2CCN(Cc3cnc(N4CC=C(c5cc(NC(=O)c6c[nH]c(=O)cc6C(F)(F)F)c(N6C[C@@H](C)N(C)[C@@H](C)C6)cc5F)CC4)nc3)CC2)C(C)(C)C)cc1 [XF078-142, N-(4-fluoro-5-(1-(5-((4-(5-(((S)-1-((2S,4R)-4-hydroxy-2-((4-(4-methylthiazol-5-yl)benzyl)carbamoyl)pyrrolidin-1-yl)-3,3-dimethyl-1-oxobutan-2-yl)amino)-5-oxopentanoyl)piperazin-1-yl)methyl)pyrimidin-2-yl)-1,2,3,6-tetrahydropyridin-4-yl)-2-((3S,5R)-3,4,5-trimethylpiperazin-1-yl)phenyl)-6-oxo-4-(trifluoromethyl)-1,6-dihydropyridine-3-carboxamide] | able to effectively degrade WDR5
Cc1ncsc1-c1ccc(CNC(=O)[C@@H]2C[C@@H](O)CN2C(=O)[C@@H](NC(=O)CCCCCC(=O)N2CCN(c3ncc(-c4cc(NC(=O)c5ccc(F)cc5C(F)(F)F)c(N5C[C@@H](C)N(C)[C@@H](C)C5)cc4F)cn3)CC2)C(C)(C)C)cc1 [XF078-111, (2S,4R)-1-((S)-2-(7-(4-(5-(2-fluoro-5-(4-fluoro-2-(trifluoromethyl)benzamido)-4-((3S,5R)-3,4,5-trimethylpiperazin-1-yl)phenyl)pyrimidin-2-yl)piperazin-1-yl)-7-oxoheptanamido)-3,3-dimethylbutanoyl)-4-hydroxy-N-(4-(4-methylthiazol-5-yl)benzyl)pyrrolidine-2-carboxamide] | able to effectively degrade WDR5
Cc1ncsc1-c1ccc(CNC(=O)[C@@H]2C[C@@H](O)CN2C(=O)[C@@H](NC(=O)COCCOCCOCCOCCOCC(=O)NCCN2CCN(Cc3ccc(F)c(-c4ccc(N5C[C@@H](C)N(C)[C@@H](C)C5)c(NC(=O)c5c[nH]c(=O)cc5C(F)(F)F)c4)c3)CC2)C(C)(C)C)cc1 [XF078-8, N^1-(2-(4-((6-fluoro-3′-(6-oxo-4-(trifluoromethyl)-1,6-dihydropyridine-3-carboxamido)-4′-((3S,5R)-3,4,5-trimethylpiperazin-1-yl)-[1,1′-biphenyl]-3-yl)methyl)piperazin-1-yl)ethyl)-N^17-((S)-1-((2S,4R)-4-hydroxy-2-((4-(4-methylthiazol-5-yl)benzyl)carbamoyl)pyrrolidin-1-yl)-3,3-dimethyl-1-oxobutan-2-yl)-3,6,9,12,15-pentaoxaheptadecanediamide] | able to effectively degrade WDR5
Cc1ncsc1-c1ccc(CNC(=O)[C@@H]2C[C@@H](O)CN2C(=O)[C@@H](NC(=O)CCCCC(=O)N2CCN(c3ncc(-c4cc(NC(=O)c5ccc(F)cc5C(F)(F)F)c(N5C[C@@H](C)N(C)[C@@H](C)C5)cc4F)cn3)CC2)C(C)(C)C)cc1 [XF078-110, (2S,4R)-1-((S)-2-(6-(4-(5-(2-fluoro-5-(4-fluoro-2-(trifluoromethyl)benzamido)-4-((3S,5R)-3,4,5-trimethylpiperazin-1-yl)phenyl)pyrimidin-2-yl)piperazin-1-yl)-6-oxohexanamido)-3,3-dimethylbutanoyl)-4-hydroxy-N-(4-(4-methylthiazol-5-yl)benzyl)pyrrolidine-2-carboxamide] | able to effectively degrade WDR5
